# Source: patent US20020182619A1, “Compositions, kits, and methods for identification, assessment, prevention, and therapy of ovarian cancer” (Millennium Pharmaceuticals, Inc., priority 2000, published 2002)
# Tested on: ovarian cell line (OVCAR3)
# Experiment: Transcript profiling on nylon arrays of OVCAR3 untreated or treated with LPA, LYS294002, or both
# Assay type: cell-based
# Experimental: Nylon arrays were prepared by spotting purified PCR product onto a nylon membrane using a robotic gridding system linked to a sample database. Several thousand clones were spotted on each nylon filter.
# RNA or DNA from cell lines were used for hybridization against the nylon arrays. The RNA or DNA is labeled utilizing an in vitro reverse transcription reaction that contains a radiolabeled nucleotide that is incorporated during the reaction. Hybridization experiments were carried out by combining labeled RNA or DNA samples with nylon filters in a hybridization chamber. Duplicate, independent hybridization experiments were performed to generate transcriptional profiling data. See, Nature Genetics, 21 (1999).
# The level of expression of ˜25,000 potential markers were measured in 4 samples, an untreated ovarian cell line (OVCAR3), OVCAR3 treated with LPA, OVCAR3 treated with LYS294002, and OVCAR3 treated with LPA and LYS294002. LYS294002 is a specific inhibitor of the P13Kinase pathway.
# Table 1 represents the markers that are expressed at least 2.5 fold greater in the OVCAR3 cell line treated with LPA as compared to the untreated cell line (column G). Table 1 also lists the expression value of these potential marker in the 4 samples, untreated OVCAR3, OVCAR3 treated with LPA, OVCAR3 treated with LYS294002, and OVCAR3 treated with LYS294002 and LPA (columns C-F). […]
substance,measurement,setting,value
lysophosphatidic acid [LPA],UPinLPA vs OVCAR3: marker expression in the OVCAR3 cell line treated with LPA as compared to the untreated cell line,"markers of Table 1, quotient of Ave-LPA divided by Ave-OVCAR3",at least 2.5 fold
same,UPinOVCAR3 vs LPA: marker expression in the untreated OVCAR3 cell line as compared to the cell line treated with LPA,"markers of Table 2, quotient of Ave-OVCAR3 divided by Ave-LPA",at least 4 fold
